The values that follow come from patent US9012420B2, “Aptamer for chymase, and use thereof” (Ribomic Inc., priority 2009, dated 2015).

T1: LTBP-1 degradation by chymase (Homo sapiens, UniProt P23946)
T1 sequence (P23946 22-247): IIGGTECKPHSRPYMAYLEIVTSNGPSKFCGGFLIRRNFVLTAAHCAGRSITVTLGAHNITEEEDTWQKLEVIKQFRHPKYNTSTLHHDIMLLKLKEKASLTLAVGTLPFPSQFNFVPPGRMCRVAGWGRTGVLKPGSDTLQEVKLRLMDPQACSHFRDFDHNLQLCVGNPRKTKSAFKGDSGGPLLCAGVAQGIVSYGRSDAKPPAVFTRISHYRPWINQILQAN

T2: chymase (Homo sapiens, UniProt P23946)
T2 sequence (P23946 22-247): T1 sequence (P23946 22-247)

B1: 4 (nucleic acid)
chain: rGrGrGrAfCrGrGfUrArGrGrArAfUfUfCrGfUfCfCrAfUfUfCfUrAfCrArGrAfUrArGrArGrAfUrArArArGfUrArGrArAfUfUfUrArAfCrArArArAfCrAfUrArGrArArGrArGfCrGrGfCfCrGfC
modifications: aptamer
B2: 14 (nucleic acid)
chain: rGrGrGrAfCrGrGfUrArGrGrArAfUfUfCfUfCrGfUfUfCfCfUrGrAfCrArGfCrAfUfUfUrGrArGrAfUrArGrAfUfUfUrArArAfCrArArAfCrGfCrAfCrAfUrArGrArArGrArGfCrGrGfCfCrGfC
modifications: aptamer
B3: 13 (nucleic acid)
chain: rGrGrGrAfCrGrGfUrArGrGrArAfUfUfCfCrGfCrArAfCfCrAfUfCfCfCrGfUrArAfCfUrAfUrGrGfUfUrArGrAfUrArGrArGfUfUrArArArArAfCfCrAfUrArGrArArGrArGfCrGrGfCfCrGfC
modifications: aptamer

Oligonucleotides are written 5' to 3', each unit as a sugar letter and its base; * is a phosphorothioate linkage, no mark a phosphodiester; rarer units and linkages stand in square brackets, end groups in braces. Plain capitals give the bases only. r = 2'-OH (RNA); f = 2'-fluoro

The first data set deals with T1, LTBP-1 degradation by chymase. The experiment in a line: LTBP-1 degradation inhibitory activity, NHLF culture supernatant, Western blotting. Format: biochemical. Details: key: +: detection of a band with the same level of density as an LTBP-1 band in the control; −: absence of detection of LTBP-1 band as clear as that of the negative control. Particulars: final nucleic acid concentration 5 μM, chymase 10 ng/mL (0.33 nM), 37° C. 1 hr; visual determination of LTBP-1 band. The protocol:
A third method of evaluation employs a native substrate contained in a cell culture supernatant. Here, degradation of chymase substrate LTBP-1 is detected by Western blotting. NHLF cells (manufactured by Cambrex Bio Science) under freezing are rapidly thawed in a 37° C. water bath, and then suspended in a medium (10% FBS/F-12). After centrifugation at 1200 rpm for 5 minutes, the resulting supernatant is removed, and the cells are re-suspended in the medium. Total volume of 10 mL medium is added to the centrifuged cells, and the cell suspension is transferred to a cell culture dish and cultured at 37° C. in the presence of 5% CO2. The cells are observed morphology and proliferation status under a microscope. When the cells become confluent, the medium is replaced with a serum-free medium (0.2% BSA/F-12). Two days after replacement of the medium, the culture supernatant is collected, dispensed, and stored under freezing at −30° C.
After 40 μL of the NHLF culture supernatant, freshly thawed before use, is dispensed to a tube, 5 μL of the nucleic acid solution diluted with solution C is added thereof. For positive control, chymostatin is diluted with solution C, and this dilution is added in the same manner. For negative control, solution C alone is added. Next, 5 μL of a 100 ng/mL dilution of chymase in solution E (solution C+0.1% BSA, 0.05% sodium azide) is added. For control, a chymase-free tube is prepared. After stirring, the sample is incubated at 37° C. for 1 hour, and mixed with an equal volume of lysis buffer for electrophoresis to terminate the reaction. LTBP-1 in the sample is detected by the procedure of Western blotting described below.
The sample mixed in the lysis buffer is boiled for 3 minutes, and 10 μL of the sample is subjected to electrophoresis on 5-20% acrylamide gel. After completion of the electrophoresis, the sample is transferred onto a nitrocellulose filter, after which the filter is blocked with 5% skimmed milk, 50 mM Tris-HCl (pH 8.0), and 0.05% sodium azide. The filter is reacted with a 2 μg/mL dilution of anti-LTBP-1 monoclonal antibody in 2% BSA, PBS, and 0.05% sodium azide at room temperature overnight. […]
As determined according to LTBP-1 band density and position (molecular weight), the band from the chymase-free well serves for positive control (+), and the band from the negative control well serves for negative control (−). […]
Chymase is deeply involved in the activation of TGF-β, which is one of the important factors causing fibrosis. […] Whether the nucleic acid of the present invention has an inhibitory activity against LTBP-1 degradation by chymase was assessed by the method shown below. […]
Take `CC(C)C[C@H](NC(=O)[C@@H](NC(=O)N[C@@H](Cc1ccccc1)C(=O)O)[C@@H]1CCN=C(N)N1)C(=O)N[C@H](C=O)Cc1ccccc1` [chymostatin, reference compound]: the “inhibitory activity on LTBP-1 degradation” value (from here on “inhibitory activity”) is recorded as “+”.

“GGGU(F)U(F)GAAGAU(F)AU(F)U(F)AAAGAAC(F)C(F)C(F) (GGGUUGAAGAUAUUAAAGAACCC; 2'-fluoro at CU, RNA at AG, backbone not given here) [SEQ ID NO: 58]”: the “inhibitory activity” value is reported as “−”.

Turning to “56 (GGGUUAGAUAGAGUUAAAAACCC; 2'-fluoro at CU, RNA at AG, backbone not given here) [compound 56]”, the “inhibitory activity” value is reported as “+”.

As for “58 (GGGUUGAAGAUAUUAAAGAACCC; 2'-fluoro at CU, RNA at AG, backbone not given here) [compound 58]”, the “inhibitory activity” value was “−”.

A further data set addresses T2, chymase. The experiment in a line: Surface plasmon resonance (Biacore T100), aptamer immobilized on SA chip, chymase injected as analyte. In kind it is binding. Particulars: Table 1; about 1000 RU nucleic acid immobilized, chymase 0.2 μM analyte, running buffer solution A; compared with 40N. On the set-up: key: ++: a sequence that binds to chymase significantly more strongly than the negative control 40N; +: a sequence that binds to chymase equivalently compared with the negative control 40N. The procedure, abridged: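 Aptamer captured on streptavidin SA chip via 5′-biotin 16-nt poly dT (~1500 RU), and 20 μL of 0.2 μM chymase injected as analyte. Running buffer Solution A for SEQ ID NO: 4-20 and 22-34, Solution C for SEQ ID NO: 38-48. Random 30- or 40-nt RNA served as negative control.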
Consider B1, for which the “Binding activity as determined using Biacore” value (“Binding activity as determined” for short) is “++”.

For B2, the “Binding activity as determined” value is “++”.

Turning to B3, the “Binding activity as determined” value is listed as “++”.
